ChEMBL document CHEMBL4184317, “Discovery of Tetrahydroquinoxalines as Bromodomain and Extra-Terminal Domain (BET) Inhibitors with Selectivity for the Second Bromodomain” (J Med Chem, 2018)
In brackets after ≈: the same amount, converted by molar mass.

How the values were obtained:
[1] = physchem; conditions: buffer
Description: Chromatographic hydrophobicity index, log D of the compound at pH 7.4 by HPLC method

[2] = biological target: Bromodomain-containing protein 4 (Homo sapiens, UniProt O60885, Y390A)
[3] = biological target: Bromodomain-containing protein 4 (Homo sapiens, UniProt O60885, Y97A)
[4] = test system: PBMC; assay: cells; conditions: Homo sapiens, read-out: pIC50 (converted)
Description: Antiinflammatory activity in human PBMC assessed as inhibition of LPS-induced MCP1 release preincubated for 30 mins followed by LPS challenge measured after 24 hrs by immunoassay

[5] = test system: Blood; assay: Antiinflammatory activity in human whole blood assessed as inhibition of LPS-induced MCP1 release preincubated for 30 mins followed by LPS challenge measured after 24 hrs by immunoassay; format: functional, tissue-based
[6] = biological target: T1, Bromodomain testis-specific protein (Homo sapiens, UniProt Q58F21); assay: Inhibition of BRDT BD1 (unknown origin) after 30 mins by TR-FRET assay
[7] = biological target: T2, Bromodomain-containing protein 2 (Homo sapiens, UniProt P25440); assay: Inhibition of human BRD2 BD1 after 30 mins by TR-FRET assay
T2 sequence (P25440 whole entry): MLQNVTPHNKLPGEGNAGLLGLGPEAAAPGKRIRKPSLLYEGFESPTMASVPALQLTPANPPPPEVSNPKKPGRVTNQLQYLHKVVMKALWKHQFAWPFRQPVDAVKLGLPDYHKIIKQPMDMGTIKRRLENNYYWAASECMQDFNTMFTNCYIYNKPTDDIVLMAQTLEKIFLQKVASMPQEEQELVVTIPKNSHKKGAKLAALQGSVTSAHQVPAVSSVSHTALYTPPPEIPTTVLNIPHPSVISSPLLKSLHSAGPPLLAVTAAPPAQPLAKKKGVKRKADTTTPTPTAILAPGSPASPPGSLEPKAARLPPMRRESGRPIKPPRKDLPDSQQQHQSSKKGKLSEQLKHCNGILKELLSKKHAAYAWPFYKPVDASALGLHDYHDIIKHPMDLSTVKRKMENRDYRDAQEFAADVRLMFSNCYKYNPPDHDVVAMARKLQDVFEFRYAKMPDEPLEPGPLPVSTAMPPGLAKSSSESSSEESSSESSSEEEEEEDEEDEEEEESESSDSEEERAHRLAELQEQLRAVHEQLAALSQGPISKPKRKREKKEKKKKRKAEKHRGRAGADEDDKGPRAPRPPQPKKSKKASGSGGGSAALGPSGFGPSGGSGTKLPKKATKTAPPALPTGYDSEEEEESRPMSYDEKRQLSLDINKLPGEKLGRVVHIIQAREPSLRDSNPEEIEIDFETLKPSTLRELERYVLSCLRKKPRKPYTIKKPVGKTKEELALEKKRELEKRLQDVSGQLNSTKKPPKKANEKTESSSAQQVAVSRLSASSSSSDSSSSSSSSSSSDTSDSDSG

[8] = Solubility of the compound in pH 7.4 phosphate buffered saline by chemiluminescent nitrogen detection method; format: physicochemical
[9] = species on record: Homo sapiens; assay: Selectivity ratio of IC50 for BRD3 BD1 (unknown origin) to IC50 for BRD3 BD2 (unknown origin)
[10] = species on record: Homo sapiens; assay: Selectivity ratio of IC50 for BRDT BD1 (unknown origin) to IC50 for BRDT BD2 (unknown origin)
[11] = biological target: T3, Bromodomain-containing protein 3 (Homo sapiens, UniProt Q15059); assay: Inhibition of BRD3 BD2 (unknown origin) after 30 mins by TR-FRET assay
T3 sequence (Q15059 whole entry): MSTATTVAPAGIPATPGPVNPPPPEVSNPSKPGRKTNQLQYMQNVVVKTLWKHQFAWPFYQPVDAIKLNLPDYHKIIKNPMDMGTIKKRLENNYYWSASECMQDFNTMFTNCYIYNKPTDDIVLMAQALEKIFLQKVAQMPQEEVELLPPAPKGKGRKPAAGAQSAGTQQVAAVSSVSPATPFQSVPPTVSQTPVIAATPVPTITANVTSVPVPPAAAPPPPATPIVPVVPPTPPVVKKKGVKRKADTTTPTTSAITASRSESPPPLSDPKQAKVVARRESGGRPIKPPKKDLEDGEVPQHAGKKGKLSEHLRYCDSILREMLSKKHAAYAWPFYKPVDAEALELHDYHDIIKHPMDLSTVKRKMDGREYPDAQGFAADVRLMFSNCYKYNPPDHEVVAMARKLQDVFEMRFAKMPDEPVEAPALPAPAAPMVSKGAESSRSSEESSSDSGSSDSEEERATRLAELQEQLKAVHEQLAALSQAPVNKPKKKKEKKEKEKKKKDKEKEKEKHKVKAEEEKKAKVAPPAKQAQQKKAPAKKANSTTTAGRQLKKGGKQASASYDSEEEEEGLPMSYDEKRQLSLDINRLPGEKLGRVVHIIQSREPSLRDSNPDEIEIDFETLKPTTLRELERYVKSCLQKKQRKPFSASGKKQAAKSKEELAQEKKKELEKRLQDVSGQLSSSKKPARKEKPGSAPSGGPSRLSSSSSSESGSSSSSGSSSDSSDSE

[12] = biological target: T3, Bromodomain-containing protein 3; assay: Inhibition of BRD3 BD1 (unknown origin) after 30 mins by TR-FRET assay
[13] = Solubility of the compound in FaSSIF at pH 6.5 after 16 hrs by HPLC method; format: physicochemical
[14] = biological target: T4, Peregrin (Homo sapiens, UniProt P55201); assay: Displacement of Alexa 647 ligand from 6H-Flag-Tev-BRPF1 (622 to 738 residues) (unknown origin) expressed in Escherichia coli BL21 (DE3) cells after 30 mins by TR-FRET assay
T4 sequence (P55201 whole entry): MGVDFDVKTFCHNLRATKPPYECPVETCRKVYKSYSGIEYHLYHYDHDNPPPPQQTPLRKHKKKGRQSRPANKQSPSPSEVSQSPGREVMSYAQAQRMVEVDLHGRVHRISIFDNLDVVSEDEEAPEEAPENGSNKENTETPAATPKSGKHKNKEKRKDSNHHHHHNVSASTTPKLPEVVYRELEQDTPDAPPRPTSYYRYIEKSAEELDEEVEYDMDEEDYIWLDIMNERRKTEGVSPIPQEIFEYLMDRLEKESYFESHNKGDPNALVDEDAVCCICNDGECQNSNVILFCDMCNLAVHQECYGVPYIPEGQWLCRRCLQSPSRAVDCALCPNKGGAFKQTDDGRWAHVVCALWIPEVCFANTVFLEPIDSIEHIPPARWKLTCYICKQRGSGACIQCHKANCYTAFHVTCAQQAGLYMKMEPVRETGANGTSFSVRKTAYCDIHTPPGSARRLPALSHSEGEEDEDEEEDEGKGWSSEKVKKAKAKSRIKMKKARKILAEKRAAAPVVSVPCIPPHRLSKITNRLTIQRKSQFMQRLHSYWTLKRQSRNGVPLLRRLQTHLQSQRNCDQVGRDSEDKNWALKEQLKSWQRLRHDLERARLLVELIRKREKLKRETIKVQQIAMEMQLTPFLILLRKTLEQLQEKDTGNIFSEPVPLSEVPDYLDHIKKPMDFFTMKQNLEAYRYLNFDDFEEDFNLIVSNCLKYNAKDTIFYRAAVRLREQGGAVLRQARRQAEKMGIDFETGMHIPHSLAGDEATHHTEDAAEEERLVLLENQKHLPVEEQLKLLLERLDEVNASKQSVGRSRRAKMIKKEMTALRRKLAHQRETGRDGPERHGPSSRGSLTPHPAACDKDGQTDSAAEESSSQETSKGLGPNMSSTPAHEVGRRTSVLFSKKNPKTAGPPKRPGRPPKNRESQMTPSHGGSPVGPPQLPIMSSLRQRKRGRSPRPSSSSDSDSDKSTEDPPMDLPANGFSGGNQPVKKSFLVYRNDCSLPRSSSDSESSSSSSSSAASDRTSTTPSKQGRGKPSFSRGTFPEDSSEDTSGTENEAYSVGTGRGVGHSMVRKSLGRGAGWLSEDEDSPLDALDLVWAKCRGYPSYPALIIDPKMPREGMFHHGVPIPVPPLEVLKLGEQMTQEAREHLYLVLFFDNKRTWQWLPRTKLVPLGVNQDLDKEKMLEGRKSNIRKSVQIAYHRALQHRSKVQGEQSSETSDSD

[15] = species on record: Homo sapiens; assay: Selectivity ratio of IC50 for human BRD2 BD1 to IC50 for human BRD2 BD2
[16] = biological target: T2, Bromodomain-containing protein 2; assay: Inhibition of human BRD2 BD2 after 30 mins by TR-FRET assay
[17] = Permeability of the compound by PAMPA; format: ADME; conditions: read-out: permeability
[18] = biological target: T1, Bromodomain testis-specific protein; assay: Inhibition of BRDT BD2 (unknown origin) after 30 mins by TR-FRET assay

SMILES	chromatographic logD ([1]; pH 7.4, logD)	IC50 [2]	IC50 [3]	further results
CC(=O)N1c2ccccc2N(Cc2ccccc2N(C)C)CC1C1CC1 (centres undefined)	7.5	20 µM	0.501 µM	IC50 [4]: 1.58 µM
CC(=O)N1c2ccccc2N(Cc2ccccc2CO)CC1C1CC1 (racemic)	4.9	31.6 µM	0.501 µM	
CCOC(=O)c1ccccc1CN1CC(C2CC2)N(C(C)=O)c2ccccc21 (centres undefined)	7.2	12.6 µM	1 µM	
CC(=O)N1c2ccccc2N(Cc2ccccc2C(=O)O)CC1C1CC1 (centres undefined)	2.2	> 50.1 µM	0.794 µM	IC50 [4]: 2.51 µM
CC(=O)N1c2ccccc2N(Cc2ccccc2OCCO)CC1C1CC1 (centres undefined)	4.9	25.1 µM	0.316 µM	
CC(=O)N1CCN(Cc2ccccc2C(=O)O)c2ccccc21	1.2	> 50.1 µM	5.01 µM	
CC(=O)N1c2ccccc2N(Cc2cc(C)ccc2C(=O)O)CC1C1CC1 (centres undefined)	2.4	> 50.1 µM	2.51 µM	
CC(=O)N1c2ccccc2N(Cc2ccccc2O)CC1C1CC1 (centres undefined)	5.2	20 µM	0.501 µM	IC50 [4]: 1.26 µM
CC(=O)N1c2ccccc2N(Cc2ccccc2CO)CC1C1CC1 (single isomer, unassigned; enantiomer 2)		> 50.1 µM	> 50.1 µM	
COc1ccccc1CN1CC(C2CC2)N(C(C)=O)c2ccccc21 (centres undefined)	6.9	15.8 µM	0.398 µM	IC50 [4]: 2 µM
CCC1CN(Cc2ccccc2)c2cc(C3=CCNCC3)ccc2N1C(C)=O (centres undefined)		3.16 µM	0.158 µM	chromatographic logD ([1]; pH 7.4): 2.8
CC(=O)N1CCN(Cc2cccc(C)c2)c2ccccc21	5.9	15.8 µM	0.501 µM	IC50 [4]: 3.16 µM
CC(=O)N1c2ccccc2N(Cc2ccc(Cl)cc2C(=O)O)CC1C1CC1 (centres undefined)	2.9	39.8 µM	1.26 µM	IC50 [4]: 12.6 µM
CC(=O)N1c2ccccc2N(Cc2cccc(O)c2)CC1C1CC1 (centres undefined)	4.9	15.8 µM	0.631 µM	
CC(=O)N1c2ccccc2N(Cc2ccccc2C#N)CC1C1CC1 (centres undefined)	6	25.1 µM	2.51 µM	
CC(=O)N1c2ccccc2N(Cc2ccccc2C(N)=O)CC1C1CC1 (centres undefined)	3.9	> 50.1 µM	1.26 µM	
COc1cc(OC)c2c(=O)[nH]c(-c3cc(C)c(OCCO)c(C)c3)nc2c1 [APABETALONE]	2.9			
CC(=O)N1CC(C)N(Cc2ccccc2)c2ccccc21 (centres undefined)		31.6 µM	1.26 µM	
CC(=O)N1c2ccccc2N(Cc2ccccc2C(=O)O)CC1C (centres undefined)	1.5	39.8 µM	1.58 µM	
CC(=O)N1c2ccccc2N(Cc2ccccc2CC(=O)O)CC1C1CC1 (centres undefined)	2.4	> 50.1 µM	1 µM	IC50 [4]: 1.26 µM
CC(=O)N1c2ccc(-c3ccc(C(=O)O)cc3)cc2[C@H](Nc2ccc(Cl)cc2)C[C@@H]1C	3.9			
CC(=O)N1c2ccccc2N(Cc2ccccc2CN)CC1C1CC1 (centres undefined)	2.7	20 µM	0.631 µM	
CC(=O)N1CCN(Cc2ccccc2)c2ccccc21	5.6	10 µM	2.51 µM	

Now from value to compound, other results behind:

chromatographic logD ([1]; pH 7.4, logD)	IC50 [2]	IC50 [3]	SMILES	further results
7.1	12.6 µM	0.794 µM	CCC1CN(Cc2cccc(C)c2)c2ccccc2N1C(C)=O (centres undefined)	
4.7	25.1 µM	0.794 µM	CC(=O)N1c2ccccc2N(Cc2cccc(CO)c2)CC1C1CC1 (centres undefined)	IC50 [4]: 0.631 µM
3.5	0.794 µM	0.0794 µM	CCC1CN(Cc2ccccc2)c2cc(-c3ccc(=O)[nH]c3)ccc2N1C(C)=O (centres undefined)	
5.9	15.8 µM	0.501 µM	CC(=O)N1c2ccccc2N(Cc2ccccc2)CC1C (centres undefined)	IC50 [4]: 1.26 µM
3.6	2 µM	0.1 µM	CCC1CN(Cc2ccccc2)c2cc(-c3cnc(C(N)=O)nc3)ccc2N1C(C)=O (centres undefined)	
5.4	5.01 µM	0.501 µM	CCC1CN(Cc2ccccc2)c2cc(-c3ccncc3OC)ccc2N1C(C)=O (centres undefined)	
6.5	10 µM	0.631 µM	CCC1CN(Cc2ccccc2)c2ccccc2N1C(C)=O (centres undefined)	
5.9	1.58 µM	0.126 µM	CCC1CN(Cc2ccccc2)c2cc(-c3cnoc3)ccc2N1C(C)=O (centres undefined)	
3	2 µM	0.0501 µM	CC(=O)N1c2ccc(-c3cnc(C(N)=O)nc3)cc2N(Cc2ccccc2CO)C[C@@H]1C1CC1	IC50 [5]: 0.398 µM; IC50 [6]: 0.501 µM; IC50 [7]: 1.58 µM; solubility [8]: 87 µM (≈ 39.8 µg/mL); Ratio IC50 [9]: 25; Ratio IC50 [10]: 5; IC50 [11]: 0.0316 µM; IC50 [12]: 0.794 µM; solubility at 16 h [13]: 18 µg/mL (≈ 39.3 µM); IC50 [14]: > 100 µM; Ratio IC50 [15]: 16; IC50 [4]: 0.0631 µM; IC50 [16]: 0.1 µM; Papp [17]: 13.5 ×10⁻⁶ cm/s; IC50 [18]: 0.1 µM
6.3	0.251 µM	0.1 µM	CCC1CN(Cc2ccccc2)c2cc(-c3cnc(C#N)nc3)ccc2N1C(C)=O (centres undefined)	
6.5	1.58 µM	0.158 µM	CCC1CN(Cc2ccccc2)c2cc(C3=CCOCC3)ccc2N1C(C)=O (centres undefined)	
4.4	0.398 µM	0.0501 µM	CCC1CN(Cc2ccccc2)c2cc(-c3ccc(C(N)=O)cc3)ccc2N1C(C)=O (centres undefined)	
4.9	3.16 µM	0.158 µM	CCC1CN(Cc2ccccc2)c2cc(-c3cncnc3)ccc2N1C(C)=O (centres undefined)	
6.5	20 µM	1 µM	CC(=O)N1c2ccccc2N(Cc2cccc(C)c2)CC1C (centres undefined)	
5.6	1.58 µM	0.1 µM	CCC1CN(Cc2ccccc2)c2cc(-c3cccnc3)ccc2N1C(C)=O (centres undefined)	
4.7	0.501 µM	0.0631 µM	CCC1CN(Cc2ccccc2)c2cc(-c3cccc(C(N)=O)c3)ccc2N1C(C)=O (centres undefined)	
7.2	25.1 µM	0.794 µM	CC(=O)N1c2ccccc2N(Cc2cccc(C)c2)CC1C1CC1 (centres undefined)	
6.7	20 µM	0.631 µM	CC(=O)N1c2ccccc2N(Cc2ccccc2)CC1C1CC1 (centres undefined)	IC50 [4]: 3.16 µM
6.1	2 µM	0.126 µM	CCC1CN(Cc2ccccc2)c2cc(-c3cnc(C)cn3)ccc2N1C(C)=O (centres undefined)	
4.5	0.631 µM	0.0631 µM	CCC1CN(Cc2ccccc2)c2cc(-c3ccc(C(N)=O)nc3)ccc2N1C(C)=O (centres undefined)	
7.4	2.51 µM	0.316 µM	CCC1CN(Cc2ccccc2)c2cc(Br)ccc2N1C(C)=O (centres undefined)	
4.2	0.398 µM	0.0501 µM	CCC1CN(Cc2ccccc2)c2cc(-c3cn[nH]c3)ccc2N1C(C)=O (centres undefined)	
